Source: US10653672B2, “Myogenesis promotor, muscle atrophy inhibitor, medical composition and TAZ activator” (National University Corporation Tokyo Medical and Dental …, priority 2014, dated 2020)

Tested on: C2C12 cells
Assay: Evaluation of myogenesis of C2C12 cells by fusion index
Format: cell-based, mouse
Conditions: differentiation condition 72 hours, DMSO as 1, average of three
Experimental: (1) C2C12 cells were grown to confluence under growth condition, and then in differentiation condition for 72 hours, in a culture medium added with DMSO, IBS008738 (exemplary compound 1) or exemplary compounds 2 to 44, at a concentration of 1 μM, 3 μM or 10 μM, respectively. Thereafter, the degree of myogenesis was evaluated by a fusion index (a value obtained by dividing the number of nuclei detected in multinucleated myosin heavy chain (MHC)-positive cells by the total number of the nuclei). Specifically, exemplary compounds were divided into five groups, and DMSO and IBS008738 were evaluated in each group as controls. The evaluation was conducted three times, and the average value and the standard deviation of the fusion index was relativized with the measured value of DMSO as 1.
C2C12 cells were passaged in a growth medium (DMEM containing 10% FBS) and differentiated in a differentiation medium (DMEM containing 2% horse serum (Invitrogen)).

CC(C)(C)OC(=O)NCCc1ccc(-n2cnc(N)c2C(=O)c2ccccc2)cc1 [exemplary compound 27]
relative fusion index (FI) (Group 4, 1 μM): 0.97 | relative fusion index (FI) (Group 4, 3 μM): 1.67 | relative fusion index (FI) (Group 4, 10 μM): 1.98

Cc1ccc(-n2cnc(N)c2C(=O)C23CC4CC(CC(C4)C2)C3)cc1 [exemplary compound 37]
relative fusion index (FI) (Group 4, 1 μM): 1.39 | relative fusion index (FI) (Group 4, 3 μM): 1.47 | relative fusion index (FI) (Group 4, 10 μM): 1.77

Cc1ccc(-n2cnc(N)c2C#N)cc1 [exemplary compound 26]
relative fusion index (FI) (Group 3, 1 μM): 1.01 | relative fusion index (FI) (Group 3, 3 μM): 1.09 | relative fusion index (FI) (Group 3, 10 μM): 1.44

Cc1ccc(-n2cnc(N(C)C)c2C(=O)c2ccccc2)cc1 [exemplary compound 18]
relative fusion index (FI) (Group 3, 1 μM): 1.34 | relative fusion index (FI) (Group 3, 3 μM): 1.52 | relative fusion index (FI) (Group 3, 10 μM): 1.85

O=C(c1ccccc1)c1c(/N=C/N2CCOCC2)ncn1-c1ccc(Br)cc1 [exemplary compound 20]
relative fusion index (FI) (Group 3, 1 μM): 1.26 | relative fusion index (FI) (Group 3, 3 μM): 1.41 | relative fusion index (FI) (Group 3, 10 μM): 1.60

COc1ccc(-n2cnc(/N=C/N(C)C)c2C(=O)c2ccccc2)cc1 [exemplary compound 14]
relative fusion index (FI) (Group 2, 1 μM): 1.18 | relative fusion index (FI) (Group 2, 3 μM): 1.63 | relative fusion index (FI) (Group 2, 10 μM): 1.72

Cc1ccc(-n2cnc(N)c2C(=O)c2ccc(Br)cc2)cc1 [exemplary compound 36]
relative fusion index (FI) (Group 4, 1 μM): 1.12 | relative fusion index (FI) (Group 4, 3 μM): 1.57 | relative fusion index (FI) (Group 4, 10 μM): 1.59

Cc1ccc(-n2cnc(N)c2C(=O)c2ccccc2)cc1 [exemplary compound 2]
relative fusion index (FI) (Group 1, 1 μM): 1.62 | relative fusion index (FI) (Group 1, 3 μM): 2.26 | relative fusion index (FI) (Group 1, 10 μM): 2.41

Cc1ccc(-n2cnc(N)c2C(=O)c2ccccc2)c(C)c1 [exemplary compound 43]
relative fusion index (FI) (Group 5, 1 μM): 1.07 | relative fusion index (FI) (Group 5, 3 μM): 1.11 | relative fusion index (FI) (Group 5, 10 μM): 1.12

Cc1ccc(-n2cnc(N)c2C(=O)c2ccc([N+](=O)[O-])cc2)cc1 [exemplary compound 33]
relative fusion index (FI) (Group 4, 1 μM): 0.91 | relative fusion index (FI) (Group 4, 3 μM): 1.20 | relative fusion index (FI) (Group 4, 10 μM): 1.23

CCOC(=O)c1c(/N=C/N2CCOCC2)ncn1-c1ccc(C)cc1 [exemplary compound 10]
relative fusion index (FI) (Group 1, 1 μM): 0.80 | relative fusion index (FI) (Group 1, 3 μM): 1.31 | relative fusion index (FI) (Group 1, 10 μM): 0.85

Cc1ccc(-n2cnc(/N=C/N3CCCCC3)c2C(=O)c2ccccc2)cc1 [exemplary compound 4]
relative fusion index (FI) (Group 1, 1 μM): 1.02 | relative fusion index (FI) (Group 1, 3 μM): 1.54 | relative fusion index (FI) (Group 1, 10 μM): 1.51

Nc1ncn(-c2ccccn2)c1C(=O)c1ccccc1 [exemplary compound 38]
relative fusion index (FI) (Group 5, 1 μM): 1.08 | relative fusion index (FI) (Group 5, 3 μM): 1.12 | relative fusion index (FI) (Group 5, 10 μM): 1.15

Cc1cc(C)c(-n2cnc(N)c2C(=O)c2ccccc2)c(C)c1 [exemplary compound 44]
relative fusion index (FI) (Group 5, 1 μM): 1.11 | relative fusion index (FI) (Group 5, 3 μM): 1.08 | relative fusion index (FI) (Group 5, 10 μM): 1.07

COc1ccc(-n2cnc(N)c2C(=O)c2ccccc2)cc1 [exemplary compound 13]
relative fusion index (FI) (Group 2, 1 μM): 1.22 | relative fusion index (FI) (Group 2, 3 μM): 1.32 | relative fusion index (FI) (Group 2, 10 μM): 1.53

CC(=O)c1c(N)ncn1-c1ccccc1C [exemplary compound 41]
relative fusion index (FI) (Group 5, 1 μM): 1.14 | relative fusion index (FI) (Group 5, 3 μM): 1.06 | relative fusion index (FI) (Group 5, 10 μM): 1.11

CNc1ncn(-c2ccc(C)cc2)c1C(=O)c1ccccc1 [exemplary compound 12]
relative fusion index (FI) (Group 2, 1 μM): 1.24 | relative fusion index (FI) (Group 2, 3 μM): 1.43 | relative fusion index (FI) (Group 2, 10 μM): 1.36

Cc1ccc(-n2cnc(/N=C/c3ccccc3)c2C(=O)c2ccccc2)cc1 [exemplary compound 6]
relative fusion index (FI) (Group 1, 1 μM): 0.96 | relative fusion index (FI) (Group 1, 3 μM): 1.78 | relative fusion index (FI) (Group 1, 10 μM): 1.42

CCOC(=O)c1c(N)ncn1-c1ccccc1C [exemplary compound 40]
relative fusion index (FI) (Group 5, 1 μM): 1.12 | relative fusion index (FI) (Group 5, 3 μM): 1.15 | relative fusion index (FI) (Group 5, 10 μM): 1.10

CCOC(=O)c1c(/N=C/N(C)C)ncn1-c1ccc(C)cc1 [exemplary compound 8]
relative fusion index (FI) (Group 1, 1 μM): 0.93 | relative fusion index (FI) (Group 1, 3 μM): 1.53 | relative fusion index (FI) (Group 1, 10 μM): 1.05

COc1ccc(-n2cnc(/N=C/N3CCOCC3)c2C(=O)c2ccccc2)cc1 [exemplary compound 15]
relative fusion index (FI) (Group 2, 1 μM): 1.20 | relative fusion index (FI) (Group 2, 3 μM): 1.58 | relative fusion index (FI) (Group 2, 10 μM): 1.58

N#Cc1ccc(-n2cnc(N)c2C(=O)c2ccccc2)cc1 [exemplary compound 39]
relative fusion index (FI) (Group 5, 1 μM): 1.04 | relative fusion index (FI) (Group 5, 3 μM): 1.10 | relative fusion index (FI) (Group 5, 10 μM): 1.09

Cc1ccccc1-n1cnc(N)c1C(=O)C12CC3CC(CC(C3)C1)C2 [exemplary compound 42]
relative fusion index (FI) (Group 5, 1 μM): 1.08 | relative fusion index (FI) (Group 5, 3 μM): 1.03 | relative fusion index (FI) (Group 5, 10 μM): 1.10

Nc1ncn(-c2ccc(Cl)cc2Cl)c1C(=O)c1ccccc1 [exemplary compound 35]
relative fusion index (FI) (Group 4, 1 μM): 1.27 | relative fusion index (FI) (Group 4, 3 μM): 1.60 | relative fusion index (FI) (Group 4, 10 μM): 1.55

CC(=O)c1c(/N=C/N(C)C)ncn1-c1ccc(C)cc1 [exemplary compound 25]
relative fusion index (FI) (Group 3, 1 μM): 0.96 | relative fusion index (FI) (Group 3, 3 μM): 1.22 | relative fusion index (FI) (Group 3, 10 μM): 1.44

CCOC(=O)c1c(N)ncn1-c1ccc(C)cc1 [exemplary compound 7]
relative fusion index (FI) (Group 1, 1 μM): 1.09 | relative fusion index (FI) (Group 1, 3 μM): 1.55 | relative fusion index (FI) (Group 1, 10 μM): 1.44

Nc1ncn(-c2ccc(Br)cc2)c1C(=O)c1ccccc1 [exemplary compound 17]
relative fusion index (FI) (Group 2, 1 μM): 1.51 | relative fusion index (FI) (Group 2, 3 μM): 2.14 | relative fusion index (FI) (Group 2, 10 μM): 2.07

Cc1ccc(-n2cnc(N)c2C(=O)c2cccc(Cl)c2)cc1 [exemplary compound 31]
relative fusion index (FI) (Group 4, 1 μM): 1.12 | relative fusion index (FI) (Group 4, 3 μM): 1.15 | relative fusion index (FI) (Group 4, 10 μM): 1.40

Cc1ccc(-n2cnc(N)c2C(=O)c2ccc(F)cc2)cc1 [exemplary compound 34]
relative fusion index (FI) (Group 4, 1 μM): 1.38 | relative fusion index (FI) (Group 4, 3 μM): 1.33 | relative fusion index (FI) (Group 4, 10 μM): 1.49

N#CCc1ccc(-n2cnc(N)c2C(=O)c2ccccc2)cc1 [exemplary compound 29]
relative fusion index (FI) (Group 4, 1 μM): 1.25 | relative fusion index (FI) (Group 4, 3 μM): 1.49 | relative fusion index (FI) (Group 4, 10 μM): 1.61

COc1ccc(C(=O)c2c(N)ncn2-c2ccc(C)cc2)cc1 [exemplary compound 30]
relative fusion index (FI) (Group 4, 1 μM): 1.27 | relative fusion index (FI) (Group 4, 3 μM): 1.52 | relative fusion index (FI) (Group 4, 10 μM): 1.54

CN(C)/C=N/c1ncn(-c2ccc(Br)cc2)c1C(=O)c1ccccc1 [exemplary compound 19]
relative fusion index (FI) (Group 3, 1 μM): 1.25 | relative fusion index (FI) (Group 3, 3 μM): 1.57 | relative fusion index (FI) (Group 3, 10 μM): 1.63

CC(=O)Nc1ncn(-c2ccc(C)cc2)c1C(=O)c1ccccc1 [exemplary compound 5]
relative fusion index (FI) (Group 1, 1 μM): 0.85 | relative fusion index (FI) (Group 1, 3 μM): 1.50 | relative fusion index (FI) (Group 1, 10 μM): 1.57

Cc1ccc(-n2c(C)nc(N)c2C(=O)c2ccccc2)cc1 [exemplary compound 16]
relative fusion index (FI) (Group 2, 1 μM): 1.06 | relative fusion index (FI) (Group 2, 3 μM): 1.18 | relative fusion index (FI) (Group 2, 10 μM): 1.60

Cc1ccc(-n2cnc(N)c2C(=O)c2ccc(Cl)cc2)cc1 [exemplary compound 32]
relative fusion index (FI) (Group 4, 1 μM): 1.16 | relative fusion index (FI) (Group 4, 3 μM): 1.47 | relative fusion index (FI) (Group 4, 10 μM): 1.60

NCCc1ccc(-n2cnc(N)c2C(=O)c2ccccc2)cc1 [exemplary compound 28]
relative fusion index (FI) (Group 4, 1 μM): 1.21 | relative fusion index (FI) (Group 4, 3 μM): 1.42 | relative fusion index (FI) (Group 4, 10 μM): 1.64
